# Laboratory results as given in ChEMBL document CHEMBL1201862, “PubChem BioAssay data set” (2004).
#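 Grown in 96-well plates, cells were treated for 48 hours with each compound at five concentrations. Insufficient inhibition: endpoint recorded as highest concentration tested. GI50: concentration for 50% inhibition of growth.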 The source made the active and inactive calls. No stated cut-off is given here; in the data, active = GI50 up to about 1.1 µM and inactive = higher.
# Experiments:
# Assay in all cases: NCI anticancer screen, dose series, 48 h
# [1] = system: UO-31
# [2] = system: ACHN
# [3] = system: OVCAR-3
# [4] = system: COLO 205
# [5] = system: HL-60
# [6] = system: OVCAR-5
# [7] = system: HCT-15
# [8] = system: KM12
# [9] = system: SF-295
# [10] = system: RXF 393
# [11] = system: MDA-MB-231
# [12] = system: RPMI-8226
# [13] = system: CAKI-1
# [14] = system: CCRF-CEM
# [15] = system: SK-MEL-5
# [16] = system: TK-10
# [17] = system: T47D
# [18] = system: M14
# [19] = system: U-251
# [20] = system: NCI-H460
# [21] = system: LOX IMVI
# [22] = system: NCI-H226
# [23] = system: SNB-19
# [24] = system: UACC-62
# [25] = system: OVCAR-4
# [26] = system: SR
# [27] = system: Malme-3M
# [28] = system: MCF7
# [29] = system: BT-549
# [30] = system: K562
# [31] = system: SK-MEL-2
# [32] = system: PC-3
# [33] = system: Hs-578T
# [34] = system: SNB-75
# [35] = system: SW-620
# [36] = system: A549
# [37] = system: OVCAR-8
# [38] = system: HCT-116
# [39] = system: A498
# [40] = system: 786-0
# [41] = system: DU-145
# [42] = system: EKVX
# [43] = system: UACC-257
# [44] = system: NCI-H23
# [45] = system: HT-29
# [46] = system: SK-MEL-28
# [47] = system: HOP-92
# [48] = system: NCI/ADR-RES
# [49] = system: SF-268
# [50] = system: HOP-62
# [51] = system: NCI-H522
# [52] = system: SF-539
# [53] = system: IGROV-1
# [54] = system: MOLT-4
# [55] = system: HCC 2998
# [56] = system: MDA-MB-435
# [57] = system: SK-OV-3
# [58] = system: SN12C
structure (smiles),measurement,setting,value
CC(=O)Oc1c(-c2ccccc2)sc2ccccc12,GI50,[1],16.8 µM (inactive)
same,GI50,[2],15.6 µM (inactive)
same,GI50,[3],> 10 µM (inactive)
same,GI50,[4],15.6 µM (inactive)
same,GI50,[5],18 µM (inactive)
same,GI50,[6],29.2 µM (inactive)
same,GI50,[7],16.6 µM
same,GI50,[8],18.4 µM (inactive)
same,GI50,[9],18.6 µM (inactive)
same,GI50,[10],13.6 µM (inactive)
same,GI50,[11],14 µM (inactive)
same,GI50,[12],1.61 µM (inactive)
same,GI50,[13],1.33 µM (inactive)
same,GI50,[14],18 µM (inactive)
same,GI50,[15],18.5 µM (inactive)
same,GI50,[16],22.6 µM (inactive)
same,GI50,[17],10.7 µM (inactive)
same,GI50,[18],> 10 µM (inactive)
same,GI50,[19],18 µM (inactive)
same,GI50,[20],14.5 µM (inactive)
same,GI50,[21],13.5 µM (inactive)
same,GI50,[22],13.3 µM (inactive)
same,GI50,[23],34.4 µM (inactive)
same,GI50,[24],15.7 µM (inactive)
same,GI50,[25],23 µM (inactive)
same,GI50,[26],10.1 µM (inactive)
same,GI50,[27],18.2 µM (inactive)
same,GI50,[28],27.6 µM (inactive)
same,GI50,[29],21.4 µM (inactive)
same,GI50,[30],13.9 µM (inactive)
same,GI50,[31],13.3 µM (inactive)
same,GI50,[32],25.5 µM (inactive)
same,GI50,[33],19.6 µM (inactive)
same,GI50,[34],15.8 µM (inactive)
same,GI50,[35],36.1 µM (inactive)
same,GI50,[36],20.6 µM (inactive)
same,GI50,[37],27.2 µM (inactive)
same,GI50,[38],13.4 µM (inactive)
same,GI50,[39],17.8 µM (inactive)
same,GI50,[40],15.6 µM (inactive)
same,GI50,[41],14.1 µM (inactive)
same,GI50,[42],22.3 µM (inactive)
same,GI50,[43],12.5 µM (inactive)
same,GI50,[44],15.1 µM (inactive)
same,GI50,[45],20.3 µM (inactive)
same,GI50,[46],21.3 µM (inactive)
same,GI50,[47],15.1 µM (inactive)
same,GI50,[48],18.2 µM (inactive)
same,GI50,[49],23 µM (inactive)
same,GI50,[50],22.3 µM (inactive)
same,GI50,[51],19 µM (inactive)
same,GI50,[52],20.6 µM (inactive)
same,GI50,[53],15.3 µM (inactive)
same,GI50,[54],14.7 µM (inactive)
same,GI50,[55],17.1 µM (inactive)
same,GI50,[56],25 µM (inactive)
CCCCCCc1cc2cc(C(=O)Nc3cccc(C(F)(F)F)c3)c(=N)oc2cc1O,GI50,[1],3.14 µM (inactive)
same,GI50,[2],1.56 µM (inactive)
same,GI50,[3],2.07 µM (inactive)
same,GI50,[4],6.64 µM (inactive)
same,GI50,[5],1.44 µM (inactive)
same,GI50,[6],4.27 µM (inactive)
same,GI50,[7],1.43 µM
same,GI50,[8],2.84 µM (inactive)
same,GI50,[9],2.9 µM (inactive)
same,GI50,[10],0.49 µM (active)
same,GI50,[11],2.31 µM (inactive)
same,GI50,[12],0.524 µM (active)
same,GI50,[13],2.32 µM (inactive)
same,GI50,[14],0.933 µM (active)
same,GI50,[15],1.13 µM (inactive)
same,GI50,[16],4.01 µM (inactive)
same,GI50,[17],0.316 µM (active)
same,GI50,[18],2.29 µM (inactive)
same,GI50,[19],1.33 µM (inactive)
same,GI50,[20],0.436 µM (active)
same,GI50,[21],1.26 µM (inactive)
same,GI50,[22],1.06 µM (active)
same,GI50,[23],2.39 µM (inactive)
same,GI50,[24],1.53 µM (inactive)
same,GI50,[25],2.32 µM (inactive)
same,GI50,[57],2.16 µM (inactive)
same,GI50,[26],0.361 µM (active)
same,GI50,[27],1.17 µM (inactive)
same,GI50,[28],1.62 µM (inactive)
same,GI50,[29],1.66 µM (inactive)
same,GI50,[30],0.543 µM (active)
same,GI50,[31],2.17 µM (inactive)
same,GI50,[32],3.34 µM (inactive)
same,GI50,[33],0.998 µM (active)
same,GI50,[34],0.646 µM (active)
same,GI50,[35],2.2 µM (inactive)
same,GI50,[36],2.06 µM (inactive)
same,GI50,[37],1.26 µM (inactive)
same,GI50,[38],1.55 µM (inactive)
same,GI50,[39],2.92 µM (inactive)
same,GI50,[40],1.37 µM (inactive)
same,GI50,[41],1.37 µM (inactive)
same,GI50,[42],2.94 µM (inactive)
same,GI50,[43],2.44 µM (inactive)
same,GI50,[44],0.185 µM (active)
same,GI50,[45],5.96 µM (inactive)
same,GI50,[46],2.57 µM (inactive)
same,GI50,[47],0.348 µM (active)
same,GI50,[48],2.06 µM (inactive)
same,GI50,[49],0.944 µM (active)
same,GI50,[58],1.33 µM (inactive)
same,GI50,[50],1.9 µM (inactive)
same,GI50,[51],0.351 µM (active)
same,GI50,[52],1.73 µM (inactive)
same,GI50,[53],1.19 µM (inactive)
same,GI50,[54],0.586 µM (active)
same,GI50,[55],2.74 µM (inactive)
same,GI50,[56],2 µM (inactive)
